For data set [1], the system named is primary SCs. The data set can be described thus: BrdU proliferation assay in primary Schwann cell cultures. Type of data set: cell-based, human. To be noted: 48 hours. Here is the method: (§1) Proliferation rate of 12 VS cultures was assessed and correlated with the tumor volume in the latest gadolinium enhanced T1-weighted MRI scan prior to surgical resection, and with tumor growth in vivo, measured as changes in the tumor's volume over time calculated from serial MRI scans. Tumor growth was standardized by dividing the growth rate by the initial tumor volume. Separate analyses were performed for solid tumors, which generally account for approximately 96% of VSs (Charabi et al., 1994), versus all studied tumors, which included 4 out of 13 total tumors with a visible cystic component, because cystic components could misrepresent true tumor volume (Charabi et al., 1994). To determine the level of cell proliferation in the cultures, Bromodeoxyuridine (BrdU) was added to the cells at a concentration of 10 μg/ml 20 hours before the cells were fixed. The cells were kept in the dark after the addition of BrdU Immunofluorescence protocol was followed as described under ‘Immunofluorescence,’ and cell and nuclear membranes were permeablized by incubation in 1% Triton-X for 10 minutes and by incubation in 2N Hydrochloric acid for 20 minutes, respectively, after fixation. Primary antibody against BrdU (AbD Serotec, NC, 1:200) and anti-rat IgG (Life Technologies, NY, 1:1000) were used. BrdU- and Hoechst-stained nuclei were counted in 3-5 fields and the ratio of BrdU positive to Hoechst positive nuclei was used to determine the proliferation rate in vitro.
(§2) Cultured human primary VS cells, primary SCs and HEI-193 cells were treated with NF-κB inhibitors BAY11-7082 (BAY11) or curcumin for 48 hours (Santa Cruz Biotechnology). BAY11 or curcumin, diluted in 100% DMSO, were mixed to the accurate concentrations in warmed media and applied to the cultures (with DMSO concentration in media being 1% maximum), alongside a no-treatment control receiving media alone with appropriate corresponding DMSO levels. Experiments were performed in media fortified with antibiotics and serum (same formulation as described in Example 1 for culturing cells).
(§3) After 48 hours of treatment, primary VS and Schwann cultures were fixed for BrdU staining, to visualize proliferation, or TUNEL staining, to visualize cell death. The same methodology as described in Example 1 was utilized. Cleaved caspase 3 staining, another apoptosis marker to reinforce findings using TUNEL, was conducted using an antibody against cleaved caspase 3 following the ‘immunofluorescence’ protocol outlined in Example 1.
(§4) The cultures were incubated with the drugs for 48 hours. To label proliferating cells, BrdU was added 20 hours before fixation. pH was measured in the media after drug addition to ensure no significant deviations.
(§5) After 48 hours of treatment with salicylates, primary VS and SC cultures were fixed for BrdU staining, to visualize proliferation, or TUNEL staining, to visualize cell death. The same methodology as described in Example 1 was utilized.

For data set [2], the system named is primary VS cells. Put plainly: BrdU proliferation assay in primary VS cultures. It is filed as cell-based, human. To be noted: for proliferation, of the NT cells / proliferation, of the non-treated cells: 48 hours. Here is the method:
as §1, with “vitro. […]” for “vitro.”
as §2, §3, §4, §5
To understand cross-talk between HGF and VEGF-A pathway, cultured VS cells were incubated with Life Technologies silencer select siRNAs targeting VEGFA (s461) or MET (s8700). To understand whether HGF signaling contributed to VS proliferation, cultured VS cells were treated with MET inhibitor SU11274 (Sigma-Aldrich, MO, #S9820). Seventy-two hours after siRNA treatment or 12 hours after treatment with SU11274 (2 μM), cells were incubated with 10 μg/mL BrdU (Life Technologies, NY, # B23151) for 20 hours before fixation.

Data set [3] deals with primary VS cells. Put plainly: TUNEL cell death assay in primary VS cultures. It is filed as cell-based, human. As to conditions: 48 hours. Here is the method: Rate of apoptosis in 6 VS cultures was assessed and correlated with tumor growth in vivo and tumor volume. […] Apoptosis was measured using terminal deoxynucleotidyl transferase dUTP nick end labeling (TUNEL, Roche Applied Sciences, NY) following manufacturer's instructions. Briefly, immunofluorescence protocol was followed as described under ‘Immunofluorescence,’ until fixations, then the cells were washed with PBS thrice and incubated in 1% Triton-X for 10 minutes on shaker. The cells were washed with PBS once and incubated in TUNEL mix for 1 hour at 37° C., then for 30 minutes at RT on shaker. The cells were then incubated in rhodamine phalloidin (Life Technologies, NY, 1:40) and Hoechst stain for 20 minutes, washed with PBS thrice and mounted onto slides for imaging. TUNEL and Hoechst stained nuclei were counted in >3 fields and the ratio of TUNEL positive to Hoechst positive nuclei was used to determine apoptosis rate in vitro. A positive control of 10 minutes-DNAse (Roche Applied Sciences, NY) treatment prior to TUNEL labeling was utilized.
(§6) For siRNA treatment, cultured primary VS cells or HEI-193 cells were placed in antibiotic and serum free media overnight. The next day, the cells were incubated with Life Technologies siRNAs targeting NF-κB genes RELA and NF-κB1, with control cells being treated with vehicle only (Lipofectamine RNAiMax), for 5 days. Some cultures were also incubated with a fluorescent random Oligo (Life Technologies) along with vehicle to assess transfection efficiency. siRNA experiments were performed in antibiotic and serum free media.
BAY11 or curcumin, diluted in 100% DMSO, were mixed to the accurate concentrations in warmed media and applied to the cultures (with DMSO concentration in media being 1% maximum), alongside a no-treatment control receiving media alone with appropriate corresponding DMSO levels.
After 48 hours of treatment, primary VS and Schwann cultures were fixed for BrdU staining, to visualize proliferation, or TUNEL staining, to visualize cell death.
After 48 hours of treatment with salicylates, primary VS and SC cultures were fixed for BrdU staining, to visualize proliferation, or TUNEL staining, to visualize cell death.

Data set [4] relates to HEI-193 NF2 VS cell line. The data set can be described thus: BrdU proliferation assay in HEI-193 cells. Type of data set: cell-based, human. As to conditions: for normalized proliferation rate: 48 hours. Here is the method:
as §1
(§7) The same methodology as described in Example 1 was utilized for primary VS and SC cultures. Cultures were treated with NF-κB inhibitors approximately after 2 weeks of culturing. HEI-193 cell line was a gift from Dr. Giovannini at the House Ear Institute (Hung et al., 2002a).
as §6, §2, §3

The test system of data set [5] is primary SCs. The data set can be described thus: TUNEL cell death assay in primary Schwann cell cultures. It is filed as cell-based, human. To be noted: 48 hours. As to the method:
(§8) Rate of apoptosis in 6 VS cultures was assessed and correlated with tumor growth in vivo and tumor volume. Two out of the six VS had cystic components. Apoptosis was measured using terminal deoxynucleotidyl transferase dUTP nick end labeling (TUNEL, Roche Applied Sciences, NY) following manufacturer's instructions. Briefly, immunofluorescence protocol was followed as described under ‘Immunofluorescence,’ until fixations, then the cells were washed with PBS thrice and incubated in 1% Triton-X for 10 minutes on shaker. The cells were washed with PBS once and incubated in TUNEL mix for 1 hour at 37° C., then for 30 minutes at RT on shaker. The cells were then incubated in rhodamine phalloidin (Life Technologies, NY, 1:40) and Hoechst stain for 20 minutes, washed with PBS thrice and mounted onto slides for imaging. TUNEL and Hoechst stained nuclei were counted in >3 fields and the ratio of TUNEL positive to Hoechst positive nuclei was used to determine apoptosis rate in vitro. A positive control of 10 minutes-DNAse (Roche Applied Sciences, NY) treatment prior to TUNEL labeling was utilized.
as §2, §3

The test system of data set [6] is HEI-193 NF2 VS cell line. Put plainly: TUNEL cell death assay in HEI-193 cells. Type of data set: cell-based, human. As to conditions: 48 hours. Here is the method: as §8, §7, §6, §2, §3
Data set [7] concerns cochlear explant cultures (hair cells and neurites). Put plainly: Murine cochlear explant culture, hair cell, neurite and fiber damage counts. It is filed as cell-based, CBA/CaJ mice. As to conditions: 100 ng/mL FGF2 pre-application plus 1 mM gentamicin, 48 hours total. The text has this: To develop an animal model to study hearing loss due to VS, cochlear explant cultures were established from postnatal CBA/CaJ mice aged P3-P5 (Jackson Laboratory, ME). Briefly, after decapitating the mouse, temporal bones were dissected from the skull in Hank's Balanced Salt Solution (Life Technologies, NY). The otic capsule encasing the cochlea was dissected out from each temporal bone. The otic capsule was carefully stripped away and the spiral ligament was peeled away from the entire cochlea, starting from the base. The basal turn of cochlea was then isolated using the dissecting knife (Fine Science Tools, CA), discarding the apical turn hook region. The tectorial membrane and the Reissner's membrane were removed, leaving the organ of Corti intact with the spiral ganglion neuron region. This explant was cultured onto a 10 mm glass coverslip coated with CellTak (BD Biosciences, CA, #354241) in a 35 mm culture dish with 4 wells. Cells were cultured in 98% DMEM, 1% ampicillin and 1% N2 supplement.
To assess FGF2's otoprotective effect, cochlear explant cultures were treated with recombinant human FGF2±gentamicin. After culturing the explants overnight, media fortified with FGF2 (100 ng/mL) was applied. Twenty-four hours later media fortified with gentamicin (1 mM) and FGF2 (100 ng/mL) was applied. […] Cochlear explants were fixed after an additional 24 hours of treatment, with total time being 48 hours.
After treatment, the explants were fixed and stained with antibodies against myosin 7A (Myo7A, Proteus Biosciences, CA) and β-tubulin (Tuj1, Covance, MA) to identify hair cells (HCs) and neurons, respectively. The same immunofluorescence protocol as described in Example 1 was used, with the exceptions of omission of […] HCl incubation, usage of 5% NHS with 1% Triton-X for blocking solution and 1% NHS with 0.4% Triton-X solution for primary antibody incubation at room temperature (RT). Secondary antibodies (Alexa Flour 555 anti-mouse and Alexa Four 488 anti-rabbit) were purchased from Life Technologies. Cochlear explants were imaged using a Leica TCS SP5 Confocal microscope. Zoomed-in pictures for the region of organ of Corti, including neurites, were merged in a z-stack to obtain a z-axis projection image in the Leica software. The number of hair cells (HCs) and neurites were manually counted per 100 μm length along the cochlea, with 1-2 samplings per specimen.
The same general methodology for murine cochlear explant cultures as described in Example 5 was utilized. Cochlear explant cultures were established from P2-P3 mice. Importantly, instead of only culturing the basal turn, the apical turn was also isolated, providing two pieces per cochlea with a greater frequency range. After approximately 12 hours, the cochlear explant cultures were treated for 48 hours with tumor secretions diluted to half their concentration. The formulation was 46.5% tumor-conditioned DMEM, 46.5% plain DMEM, 5% FBS, 1% ampicillin and 1% N2 supplement. Cochlear explants were treated with control media in parallel, being 46.5% DMEM incubated without tumor, 46.5% plain DMEM, 5% FBS, 1% ampicillin and 1% N2 supplement. All reagents were purchased from Life Technologies, NY. Osmolality in the solutions was measured in samples using a vapor-pressure osmometer (standardized with 290 mOsm/kg of 0.1567M sodium chloride solution) before applying them onto cochlear explants. Extra formulation for each VS secretion was made to be tested on Milliplex arrays and ELISA. Milliplex array, containing FGF2, VEGF-A and HGF beads (Millipore) and human TNFα ELISA (R&D Systems) were conducted as directed by the manufacturer on VS secretions prior to being applied onto the cochlear explant cultures.
Cochlear explants were fixed 48 hours after treatment and the same methodology for VS secretion application as described in Example 5 was utilized. […]

Take `Nc1ccc(O)c(C(=O)O)c1` [5-ASA, 5-aminosalicylic acid]: the “proliferation, of the NT cells” value with primary SCs [1] (5 mM) was found to be 107.8±22.4%; with primary SCs [1] (10 mM), 109.7±26.7%; in the data set on primary VS cells [2] (5 mM), 55%; in the data set with primary VS cells [2] (10 mM) it was 54.8±16.5%. Also, the cell death rate in the data set with primary VS cells [3] (5 mM) amounted to 5.6±3.2%.
With `Cc1ccc(S(=O)(=O)/C=C/C#N)cc1` [BAY11, BAY11-7082], the normalized proliferation rate was 165.2±125.1% in the data set on primary SCs [1] (1 μM); 133.2±101.1% in the data set on primary SCs [1] (5 μM); 65.6±24.6% with HEI-193 NF2 VS cell line [4] (10 μM); 9.1±4.9% with HEI-193 NF2 VS cell line [4] (100 μM); 4.3±3.3% with HEI-193 NF2 VS cell line [4]. In addition, in the data set with primary SCs [1] (1 mM), the “normalized proliferation rate, of the NT cells” value is on record as 130.2±65.6%. Also, in the data set on HEI-193 NF2 VS cell line [4] (NF2 VS cell line versus primary VS cells), the “higher concentration needed to reduce proliferation and survival than in primary VS cells” value was roughly 10 fold. The “apoptosis / cell death rate” value in the data set on primary SCs [5] (1 μM) was 1.0±0.7%; in the data set on primary SCs [5] (5 μM), 0.7±0.7%. In addition, the “proliferation, of the non-treated cells” value turned out to be 54.7±22.8% in the data set on primary VS cells [2] (1 μM); 14% with primary VS cells [2] (5 μM); 14.3±9.7% in the data set with primary VS cells [2] (5 μM, listed as BAY 11). Moreover, the “effective therapeutic window to target VS cells” value with primary VS cells [2] (from primary VS and SC culture results combined) is “around 5 μM”. The cell death rate in the data set with primary VS cells [3] (1 μM) is reported as 36±13%; with primary VS cells [3] (5 μM), 47±12%; in the data set with HEI-193 NF2 VS cell line [6] (1 μM), 1.3±0.5%; in the data set with HEI-193 NF2 VS cell line [6] (5 μM) it was 1.9±1.2%; in the data set with HEI-193 NF2 VS cell line [6] (10 μM), 1.1±1.1%; in the data set on HEI-193 NF2 VS cell line [6] (100 μM), 58.8±21.5%. The compound further came in with a cell death rate in the data set with HEI-193 NF2 VS cell line [6] of 55.3±16.9%.
On to `Cc1[nH]c(/C=C2\C(=O)Nc3ccc(S(=O)(=O)N(C)c4cccc(Cl)c4)cc32)c(C)c1C(=O)N1CCN(C)CC1` [SU11274], for which the “proliferation, of VS cells treated with DMSO only” value with primary VS cells [2] (2 μM, 12 hours then BrdU 20 hours) is on record as 22.4±11.7%.
FGF2: recombinant human FGF2: in data set [7], the “number of neurites per 100 μm” value came out at 13.7±5.5 per 100 μm and the “total number of HCs per 100 μm length” value is recorded as 15.0±4.6 per 100 μm.

These data come from patent publication US10010585B2, “Methods of treating vestibular schwannoma and reducing hearing or neurite loss caused by vestibular schwannoma” (Massachusetts Eye and Ear Infirmary, priority 2014, dated 2018).
